Measurements: patent US6825199B2, “7-Substituted quinazolin-2,4-diones useful as antibacterial agents” (Warner-Lambert Company, priority 1997, dated 2004)
Converted amounts (≈) assume the structure as drawn.

Assays:
Assay type in all cases: cell-based
[1] = tested on: Chinese hamster V79 cells; assay: Mammalian cell cytotoxicity, colony formation; conditions: 3 hours drug treatment, colony formation after 5 days
Experimental: The cytotoxicity was determined in Chinese hamster V79 cells. The cells were grown overnight and treated with drug for 3 hours at 37° C., at which time the compound containing media was replaced with fresh media. The cells were then incubated for 5 days and examined for colony formation.

E. coli MC4100 = assay: Antibacterial assay, standard microtitration (MIC); conditions: Escherichia coli, MC4100; Gram negative; read-out: Minimum Inhibitory Concentrations E. coli MC4100
Experimental: (§1) Antibacterial assay: The compounds of the present invention were tested against an assortment of Gram negative and Gram positive organisms using standard microtitration techniques (Cohen, et al., Antimicrob. Agents Chemother., 1985;28:766; Heifetz, et al., Antimicrob. Agents Chemother., 1974;6:124).

S. pyogenes C203 = assay: Antibacterial assay, standard microtitration (MIC); conditions: Streptococcus pyogenes, C203; Gram positive; read-out: Minimum Inhibitory Concentrations S. pyogenes C203
Experimental: as §1

E. coli B90 = assay: Antibacterial assay, standard microtitration (MIC); conditions: Escherichia coli, B90; Gram negative; read-out: Minimum Inhibitory Concentrations E. coli B90
Experimental: as §1

E. coli Tol C = assay: Antibacterial assay, standard microtitration (MIC); conditions: Escherichia coli, read-out: Minimum Inhibitory Concentrations E. coli Tol C
Experimental: as §1

S. aureus 29213 = assay: Antibacterial assay, standard microtitration (MIC); conditions: Staphylococcus aureus, 29213; Gram positive; read-out: Minimum Inhibitory Concentrations S. aureus 29213
Experimental: as §1

B. subtilis RB1 = assay: Antibacterial assay, standard microtitration (MIC); conditions: Bacillus subtilis, Gram positive, read-out: Minimum Inhibitory Concentrations B. subtilis RB1
Experimental: as §1

CCn1c(=O)n(O)c(=O)c2cc(F)c(N3CCOCC3)cc21 [Example 3, 1-Ethyl-6-fluoro-3-hydroxy-7-morpholin-4-yl-1H-quinazoline-2,4-dione]
50% Cytotoxic Conc. in CHO Cells [1]: 176 µg/mL | MIC (E. coli MC4100): > 64 µg/mL | MIC (S. pyogenes C203): > 64 µg/mL | MIC (E. coli B90): 4 µg/mL (≈ 12.9 µM) | MIC (E. coli Tol C): 2 µg/mL (≈ 6.47 µM) | MIC (S. aureus 29213): > 64 µg/mL | MIC (B. subtilis RB1): 8 µg/mL (≈ 25.9 µM)
